Measurements from the supplement of paper PMC10307832.

Compound: Cc1nc(C(=O)NCC(=O)O)c(O)c2ccc(Oc3ccccc3)cc12 [FG-4592] + Cc1nc(Nc2ncc(C(=O)Nc3c(C)cccc3Cl)s2)cc(N2CCN(CCO)CC2)n1 [Dasatinib] (partner 0.075 µM)
Assay: relative viability (nuclei count vs DMSO), 5 days (fraction); higher = more cells survive
Conditions: first compound 8 µM
How it was run: (§1)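 Values are medians from duplicate plates. Each reflects relative viability, defined as the nuclei count of treated wells over that of vehicle wells. Lung cancer cell lines in 1536-well plates were pin-tool dosed one day after seeding with one drug alone or with a fixed anchor-drug dose plus five library-drug doses (not always all listed) in √10 steps, then fixed, stained and imaged at 4× after 5 days.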

| Cell Line | relative viability |
| --- | --- |
| PC-14 | 0.343 |
| EKVX | 0.495 |

Compound: Cc1nc(C(=O)NCC(=O)O)c(O)c2ccc(Oc3ccccc3)cc12 [FG-4592] + O=C(CCCCCCC(=O)Nc1ccccc1)NO [Vorinostat] (partner 1 µM)
Assay: as above
Conditions: first compound 0.08 µM
How it was run: as §1

| Cell Line | relative viability |
| --- | --- |
| HOP-62 | 0.61 |
| LU99A | 0.464 |
| BEN | 0.558 |
| HARA | 0.554 |
| HCC-78 | 0.488 |
| LCLC-97TM1 | 0.63 |
| NCI-H2009 | 0.823 |
| A-427 | 0.84 |
| NCI-H441 | 0.692 |
| NCI-H661 | 0.778 |
| NCI-H1734 | 0.762 |
| NCI-H460 | 0.707 |
| NCI-H2347 | 0.519 |
| SK-LU-1 | 0.862 |
| 201T | 0.905 |
| NCI-H1915 | 0.452 |

| Cell Line | relative viability |
| --- | --- |
| HCC-827 | 0.85 |
| LXF-289 | 0.776 |
| NCI-H23 | 0.484 |
| NCI-H647 | 0.35 |
| CAL-12T | 0.624 |
| NCI-H1651 | 0.597 |
| EPLC-272H | 0.41 |
| NCI-H2228 | 0.592 |
| NCI-H1355 | 0.553 |
| NCI-H3122 | 0.997 |
| NCI-H1437 | 0.751 |
| NCI-H1755 | 0.694 |
| NCI-H2023 | 0.631 |
| HCC-15 | 0.975 |
| PC-14 | 0.785 |
| EKVX | 0.869 |

Same assay, conditions: first compound 0.253 µM

| Cell Line | relative viability |
| --- | --- |
| HOP-62 | 0.686 |
| LU99A | 0.523 |
| BEN | 0.566 |
| HARA | 0.556 |
| NCI-H322M | 0.823 |
| LCLC-97TM1 | 0.737 |
| NCI-H2009 | 0.694 |
| A-427 | 0.85 |
| NCI-H441 | 0.809 |
| NCI-H661 | 0.827 |
| NCI-H1734 | 0.802 |
| NCI-H460 | 0.691 |
| NCI-H2347 | 0.421 |
| SK-LU-1 | 0.505 |
| 201T | 0.933 |
| NCI-H1915 | 0.489 |

| Cell Line | relative viability |
| --- | --- |
| HCC-827 | 0.823 |
| LXF-289 | 0.742 |
| NCI-H23 | 0.451 |
| NCI-H647 | 0.366 |
| CAL-12T | 0.583 |
| NCI-H1651 | 0.596 |
| EPLC-272H | 0.487 |
| NCI-H2228 | 0.408 |
| NCI-H1355 | 0.632 |
| NCI-H3122 | 0.906 |
| NCI-H1437 | 0.786 |
| NCI-H1755 | 0.761 |
| NCI-H2023 | 0.514 |
| HCC-15 | 0.796 |
| PC-14 | 0.738 |
| EKVX | 0.619 |

Same assay, conditions: first compound 0.8 µM

| Cell Line | relative viability |
| --- | --- |
| HOP-62 | 0.451 |
| BEN | 0.459 |
| HARA | 0.507 |
| HCC-78 | 0.434 |
| NCI-H322M | 0.772 |
| NCI-H2009 | 0.88 |
| A-427 | 0.845 |
| NCI-H441 | 0.855 |
| NCI-H661 | 0.832 |
| NCI-H1734 | 0.616 |
| NCI-H460 | 0.771 |
| NCI-H2347 | 0.52 |
| SK-LU-1 | 0.799 |
| 201T | 0.807 |
| NCI-H1915 | 0.469 |
| HCC-827 | 0.927 |
| LXF-289 | 0.857 |
| NCI-H23 | 0.415 |
| NCI-H647 | 0.551 |
| CAL-12T | 0.651 |
| NCI-H1651 | 0.546 |
| EPLC-272H | 0.41 |
| NCI-H2228 | 0.77 |
| NCI-H3122 | 0.975 |
| NCI-H1437 | 0.912 |
| NCI-H1755 | 0.472 |
| NCI-H2023 | 0.572 |
| HCC-15 | 0.776 |
| PC-14 | 0.814 |
| EKVX | 0.64 |

Same assay, conditions: first compound 2.53 µM

| Cell Line | relative viability |
| --- | --- |
| HOP-62 | 0.486 |
| LU99A | 0.506 |
| BEN | 0.546 |
| HARA | 0.662 |
| HCC-78 | 0.376 |
| NCI-H322M | 0.898 |
| LCLC-97TM1 | 0.328 |
| NCI-H2009 | 0.671 |
| A-427 | 0.806 |
| NCI-H441 | 0.694 |
| NCI-H661 | 0.755 |
| NCI-H1734 | 0.713 |
| NCI-H460 | 0.748 |
| NCI-H2347 | 0.41 |
| SK-LU-1 | 0.845 |
| 201T | 0.972 |
| NCI-H1915 | 0.442 |

| Cell Line | relative viability |
| --- | --- |
| HCC-827 | 0.842 |
| LXF-289 | 0.736 |
| NCI-H23 | 0.507 |
| NCI-H647 | 0.486 |
| CAL-12T | 0.585 |
| NCI-H1651 | 0.469 |
| EPLC-272H | 0.559 |
| NCI-H2228 | 0.583 |
| NCI-H1355 | 0.596 |
| NCI-H3122 | 0.975 |
| NCI-H1437 | 0.894 |
| NCI-H1755 | 0.69 |
| NCI-H2023 | 0.553 |
| HCC-15 | 0.82 |
| PC-14 | 0.694 |
| EKVX | 0.706 |

Same assay, conditions: first compound 8 µM

| Cell Line | relative viability |
| --- | --- |
| HOP-62 | 0.816 |
| LU99A | 0.423 |
| BEN | 0.547 |
| HARA | 0.607 |
| HCC-78 | 0.523 |
| NCI-H322M | 0.822 |
| LCLC-97TM1 | 0.671 |
| NCI-H2009 | 0.727 |
| A-427 | 0.78 |
| NCI-H441 | 0.696 |
| NCI-H661 | 0.839 |
| NCI-H1734 | 0.852 |
| NCI-H460 | 0.755 |
| NCI-H2347 | 0.585 |
| SK-LU-1 | 0.811 |
| 201T | 0.993 |
| NCI-H1915 | 0.468 |

| Cell Line | relative viability |
| --- | --- |
| HCC-827 | 0.81 |
| LXF-289 | 0.797 |
| NCI-H23 | 0.634 |
| NCI-H647 | 0.237 |
| CAL-12T | 0.496 |
| NCI-H1651 | 0.538 |
| EPLC-272H | 0.472 |
| NCI-H2228 | 0.449 |
| NCI-H1355 | 0.644 |
| NCI-H3122 | 0.592 |
| NCI-H1437 | 0.722 |
| NCI-H1755 | 0.747 |
| NCI-H2023 | 0.543 |
| HCC-15 | 0.829 |
| PC-14 | 0.615 |
| EKVX | 0.784 |
